Experimental data published in patent publication US11236086B2, “Substituted pyrrolopyridines as inhibitors of activin receptor-like kinase” (BLUEPRINT MEDICINES CORPORATION, priority 2017, dated 2022).

Columns and labels:
[1] = target: T1, ALK2R206H (mutant ALK2, N-terminally tagged with GST) (Homo sapiens, UniProt Q04771, R206H); assay: ALK binding assay (LANTHASCREEN TR-FRET competitive binding, displacement of Kinase Tracer 178); settings: read-out: Binding Assay (IC50 class)
T1 construct: purchased Carna Bioscience or ThermoFisher 09-148 or PV6232
T1 sequence (Q04771 21-509 R206H): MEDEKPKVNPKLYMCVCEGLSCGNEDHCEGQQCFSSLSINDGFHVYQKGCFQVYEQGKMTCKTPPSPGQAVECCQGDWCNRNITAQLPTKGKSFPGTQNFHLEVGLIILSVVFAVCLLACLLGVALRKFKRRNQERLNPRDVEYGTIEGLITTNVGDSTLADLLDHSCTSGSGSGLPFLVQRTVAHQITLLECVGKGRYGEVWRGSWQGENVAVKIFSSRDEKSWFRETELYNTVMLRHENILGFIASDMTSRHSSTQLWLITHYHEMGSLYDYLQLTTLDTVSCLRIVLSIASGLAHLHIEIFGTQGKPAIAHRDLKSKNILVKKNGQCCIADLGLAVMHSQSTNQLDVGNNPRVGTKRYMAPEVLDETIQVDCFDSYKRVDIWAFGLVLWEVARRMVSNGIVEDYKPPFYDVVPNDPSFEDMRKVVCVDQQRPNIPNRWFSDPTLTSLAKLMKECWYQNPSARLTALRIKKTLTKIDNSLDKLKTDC
In short: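 GST-tagged ALK2 R206H (2-5 nM) mixed with Eu-anti-GST antibody (4-10 nM), Kinase Tracer 178 (50 nM, near its Kd) and compound titration (1% DMSO) in Kinase Buffer A, 30 min at room temperature. Tracer displacement read as TR-FRET ratio, normalized to controls; IC50 from 4-parameter fit.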

human ALK2 R206H = target: T2, human ALK2 R206H (Homo sapiens, UniProt Q04771, R206H); assay: Cell-based ALK2-R206H cell activity assay (Smad1-Ser463/Ser465 phosphorylation by AlphaLISA in HEK293-ALK2-R206H cells); settings: phospho-Smad1 AlphaLISA, read-out: Cell Line (Cell Assay, IC50 class)
T2 construct: expressed in transfected cells; host or cells: HEK293 (ATCC CRL1573), lentivirus transduction, blasticidin selection
T2 sequence (Q04771 21-509 R206H): T1 sequence (Q04771 21-509 R206H)
Description: Example 11. Cell-Based ALK2-R206H Cell Activity Assay
A HEK293 (ATCC, Cat No. CRL1573) based stable cell line expressing human ALK2 R206H cDNA (synthesized by GeneScript, Piscataway, N.J.) and a FLAG tag at the C-terminus was generated by lentivirus transduction and subsequent blasticidin (Life Technologies, Cat No. A1113902) selection at 10 μg/ml for >2 wks. This cell line was named HEK293-ALK2-R206H.
B. Measurement of Smad1-Ser463/Ser465 Phosphorylation by AlphaLISA
HEK293-ALK2-R206H cells were grown, harvested, and then resuspended in serum-free, phenol red-free DMEM high glucose media (Life Technologies, Cat No. 31053). The media also contained 50 units/ml penicillin and 50 μg/ml streptomycin (Life Technologies, Cat. No. 15070-063). HEK293-ALK2-R206H cells were then plated in white opaque 384-wells microplates (2×10^4/well) (OptiPlate-384, PerkinElmer, Waltham, Mass., Cat No. 6007299) overnight (>16h) at 37° C. 5% CO2 for use in the assay.
Test compounds were first diluted to 4 mM or 0.4 mM and then serially diluted 3-fold into 10 different concentrations using DMSO. Each concentration of compound was further diluted 40-fold with phenol red-free DMEM (Life Technologies, Cat No. 31053). 2 μl of the diluted compounds were then dispensed into the HEK293-ALK2-R206H cell-containing wells of the microplates in duplicates. In this way, each compound was tested in 10 doses (3-fold serial dilution with the top concentration being 10 μM or 1 μM). Liquid handling was achieved using a Bravo Automated Liquid Handling Platform (Agilent Technologies). DMSO without compound was used as a negative control. The positive control was 1 μM LDN193189, a known bone morphogenetic protein (BMP inhibitor).
After 2-3 hours of incubation with test compound or control, the cells were lysed and signal was developed using ALPHASCREEN® SUREFIRE® SMAD1 (p-Ser463/465) cellular kinase assay kit (PerkinElmer, Cat No. TGRSM1S10K) following the manufacturer's recommended protocol. The microplates were read using Perkin Elmer ENVISION® plate reader (emission […]). The signal reflected the level of phospho-Ser/463/465-Smad1 in the lysate. The raw data were plotted using the DMSO negative and LDN193189 positive controls as the 0% and 100% inhibition, respectively. The 10-point dose response curve was used to calculate the IC50 values.
The results of this assay are shown in Table 3 in the column labeled “Cell Assay” wherein “A” represents an IC50 of less than or equal to 100 nM; “B” an IC50 of greater than 100 nM and less than or equal to 500 nM; “C” an IC50 of greater than 500 nM. Blank values in the table indicate that the particular compound was not tested in this assay.

SMILES | IC50 [1] [nM] | IC50 (human ALK2 R206H) [nM]
O=C(OC1COC1)N1CCN(c2ccnc3[nH]c(-c4cccnc4)cc23)CC1 [Compound 67] | ≤ 10 | 100 to 500
CCOC(=O)N1CCN(c2ccnc3[nH]c(-c4cnn(C)c4)c(C#N)c23)CC1 [Compound 68] | ≤ 10 | ≤ 100
CCOC(=O)N1CCN(c2ccnc3[nH]c(-c4cn(C)nc4C#N)cc23)CC1 [Compound 69] | ≤ 10 | ≤ 100
CCOC(=O)N1CCN(c2ccnc3[nH]c(-c4cnn(C)c4C#N)cc23)CC1 [Compound 70] | ≤ 10 | ≤ 100
Cn1cc(-c2cc3c(N4CCN(C(=O)OCCC#N)CC4)ccnc3[nH]2)cn1 [Compound 71] | ≤ 10 | 100 to 500
Cc1nc(-c2cc3c(N4CCN(C(=O)OC5CC5)CC4)ccnc3[nH]2)cn1C [Compound 75] | ≤ 10 | ≤ 100
Cn1cnc(-c2cc3c(N4CCN(C(=O)OC5CCC5)CC4)ccnc3[nH]2)c1 [Compound 76] | ≤ 10 | ≤ 100
Cn1cc(-c2cc3c(N4CCN(C(=O)OC5CCC5)CC4)ccnc3[nH]2)cn1 [Compound 77] | ≤ 10 | ≤ 100
CCCC(C)C(=O)N1CCN(c2ccnc3[nH]c(-c4cnn(C)c4)cc23)CC1 (stereo not shown) [Compound 82] | ≤ 10 | > 500
CCOC(=O)N1CCN(c2ccnc3[nH]c(-c4csc(C#N)c4)cc23)CC1 [Compound 86] | ≤ 10 | ≤ 100
Cn1cnc(-c2cc3c(N4CCN(C(=O)OC5COC5)CC4)ccnc3[nH]2)c1 [Compound 89] | ≤ 10 | ≤ 100
Cn1cc(-c2cc3c(N4CCN(C(=O)OC5COC5)CC4)ccnc3[nH]2)cn1 [Compound 90] | ≤ 10 | ≤ 100
Cn1ccc(-c2cc3c(N4CCN(C(=O)OC5COC5)CC4)ccnc3[nH]2)n1 [Compound 91] | ≤ 10 | 100 to 500
Cn1cc(-c2cc3c(N4CCN(C(=O)C5CC(F)C5)CC4)ccnc3[nH]2)cn1 (stereo not shown) [Compound 93] | ≤ 10 | ≤ 100
CCOC(=O)N1CCN(c2ccnc3[nH]c(-c4cnn(C(C)C)c4)cc23)CC1 [Compound 96] | ≤ 10 | ≤ 100
CC(C)COC(=O)N1CCN(c2ccnc3[nH]c(-c4cnn(C)c4)cc23)CC1 [Compound 97] | ≤ 10 | 100 to 500
CCC(C)OC(=O)N1CCN(c2ccnc3[nH]c(-c4cnn(C)c4)cc23)CC1 (stereo not shown) [Compound 98] | ≤ 10 | 100 to 500
CCOC(=O)N1CCN(c2ccnc3[nH]c(-c4cnn(C)c4CC)cc23)CC1 [Compound 100] | ≤ 10 | 100 to 500
Cc1nc(-c2cc3c(N4CCN(C(=O)OC5COC5)CC4)ccnc3[nH]2)co1 [Compound 102] | ≤ 10 | 100 to 500
Cc1ncc(-c2cc3c(N4CCN(C(=O)OC5COC5)CC4)ccnc3[nH]2)o1 [Compound 103] | ≤ 10 | 100 to 500
Cc1cc(-c2cc3c(N4CCN(C(=O)OC5COC5)CC4)ccnc3[nH]2)on1 [Compound 104] | ≤ 10 | 100 to 500
Cn1cc(-c2cc3c(N4CCN(C(=O)OC5COC5)CC4)ccnc3[nH]2)nn1 [Compound 105] | ≤ 10 | 100 to 500
Cc1nc(-c2cc3c(N4CCN(C(=O)OC5CC5)CC4)ccnc3[nH]2)cs1 [Compound 109] | ≤ 10 | ≤ 100
CCOC(=O)N1CCN(c2ccnc3[nH]c(-c4cnn(C)c4)c(CO)c23)CC1 [Compound 111] | ≤ 10 | 100 to 500

SMILES | IC50 [1] [nM] | IC50 (human ALK2 R206H) [nM]
O=C(OC1COC1)N1CCN(c2ccnc3[nH]c(-c4cscn4)cc23)CC1 [Compound 112] | ≤ 10 | ≤ 100
CCOC(=O)N1CCN(c2ccnc3[nH]c(-c4ncc(CC)s4)cc23)CC1 [Compound 113] | ≤ 10 | ≤ 100
CCOC(=O)N1CCN(c2ccnc3[nH]c(-c4nc(C)c(C)s4)cc23)CC1 [Compound 114] | ≤ 10 | ≤ 100
CCOC(=O)N1CCN(c2ccnc3[nH]c(-c4ccccn4)c(Cl)c23)CC1 [Compound 115] | ≤ 10 | ≤ 100
C[C@H](F)COC(=O)N1CCN(c2ccnc3[nH]c(-c4cnn(C)c4)cc23)CC1 [Compound 116] | ≤ 10 | ≤ 100
C[C@@H](CF)OC(=O)N1CCN(c2ccnc3[nH]c(-c4cnn(C)c4)cc23)CC1 [Compound 117] | ≤ 10 | ≤ 100
C[C@@H](F)COC(=O)N1CCN(c2ccnc3[nH]c(-c4cnn(C)c4)cc23)CC1 [Compound 118] | ≤ 10 | 100 to 500
CC(C)c1ccc(-c2cc3c(N4CCN(C(=O)C5CC5)CC4)ccnc3[nH]2)cc1 [Compound 120] | ≤ 10 | 100 to 500
CCOC(=O)N1CCN(c2ccnc3[nH]c(-c4cnn(C)c4)c(Cl)c23)CC1 [Compound 121] | ≤ 10 | ≤ 100
CCOC(=O)N1CCN(c2ccnc3[nH]c(-c4cn(C)nc4Cl)cc23)CC1 [Compound 122] | ≤ 10 | 100 to 500
Cn1cc(-c2cc3c(N4CCN(C(=O)[C@H]5C[C@H](C#N)C5)CC4)ccnc3[nH]2)cn1 [Compound 123] | ≤ 10 | 100 to 500
Cn1cnc(-c2cc3c(N4CCN(C(=O)OCC(F)F)CC4)ccnc3[nH]2)c1 [Compound 124] | ≤ 10 | ≤ 100
CCOC(=O)N1CCN(c2ccnc3[nH]c(-c4cnn(C(F)F)c4)cc23)CC1 [Compound 125] | ≤ 10 | ≤ 100
Cn1cc(-c2cc3c(N4CCN(C(=O)OCC(F)F)CC4)ccnc3[nH]2)cn1 [Compound 126] | ≤ 10 | ≤ 100
CCOc1ccc(-c2cc3c(N4CCN(C(=O)C5CC5)CC4)ccnc3[nH]2)cc1 [Compound 127] | 10 to 50 | 100 to 500
O=C(C1CC1)N1CCN(c2ccnc3[nH]c(-c4cnn(C5CCC5)c4)cc23)CC1 [Compound 128] | ≤ 10 | 100 to 500
Cn1cc(-c2[nH]c3nccc(N4CCN(C(=O)OC5CC5)CC4)c3c2C#N)cn1 [Compound 129] | ≤ 10 | ≤ 100
Cn1cnc(-c2[nH]c3nccc(N4CCN(C(=O)OC5CC5)CC4)c3c2C#N)c1 [Compound 130] | ≤ 10 | ≤ 100
Cn1cc(-c2cc3c(N4CCN(C(=O)CC(F)(F)F)CC4)ccnc3[nH]2)cn1 [Compound 131] | 10 to 50 | > 500
CC#Cc1c(-c2cnn(C)c2)[nH]c2nccc(N3CCN(C(=O)OCC)CC3)c12 [Compound 132] | ≤ 10 | ≤ 100
O=C(C1CC1)N1CCN(c2ccnc3[nH]c(-c4cnn(C5COC5)c4)cc23)CC1 [Compound 133] | ≤ 10 | 100 to 500
Cn1cc(-c2cc3c(N4CCN(C(=O)C5CCCCC5)CC4)ccnc3[nH]2)cn1 [Compound 134] | ≤ 10 | 100 to 500
Cn1cc(-c2cc3c(N4CCN(C(=O)CC5CCCC5)CC4)ccnc3[nH]2)cn1 [Compound 135] | ≤ 10 | 100 to 500
